# Reference: patent US20140179664A1, “Heterocyclyl Pyrimidine Analogues As JAK Inhibitors” (Cellzome Limited, priority 2011, published 2014)
# Legend:
# Format in all cases: binding
# JAK1 = molecular target: T1, JAK1 (Homo sapiens, UniProt P23458); assay: Kinobeads assay, JAK1; details: mixed Molt4/Ramos lysate, read-out: Inhibition values (IC50) JAK1
# T1 construct: endogenous in cells; host or cells: Molt4 (ATCC CRL-1582) and Ramos (ATCC CRL-1596), mixed lysate 1:2
# Method: After the incubation time the beads with captured proteins were separated from the lysate. Bound proteins were then eluted and the presence of JAK1, JAK2, JAK3 and TYK2 was detected and quantified using specific antibodies in a dot blot procedure and the Odyssey infrared detection system. Dose response curves for individual kinases were generated and IC50 values calculated.
# (§1) 5×DP buffer: 250 mM Tris-HCl pH 7.4, 25% Glycerol, 7.5 mM MgCl2, 750 mM NaCl, 5 mM Na3VO4; filter the 5×DP buffer through a 0.22 μm filter and store in aliquots at −80° C. The 5×DP buffer is diluted with H2O to 1×DP buffer containing 1 mM DTT and 25 mM NaF.
# Stock solutions of test compounds were prepared in DMSO. […] Starting with this solution a 1:3 dilution series (9 steps) was prepared. For control experiments (no test compound) a buffer containing 2% DMSO was used.
# Cells were homogenized in a Potter S homogenizer in lysis buffer: 50 mM Tris-HCl, 0.8% NP40, 5% glycerol, 150 mM NaCl, 1.5 mM MgCl2, 25 mM NaF, 1 mM sodium vanadate, 1 mM DTT, pH 7.5. […] The material was dounced 10 times using a mechanized POTTER S, transferred to 50 mL falcon tubes, incubated for 30 minutes on ice and spun down for 10 minutes at 20,000 g at 4° C. (10,000 rpm in Sorvall SLA600, precooled). […] (33.500 rpm in Ti50.2, precooled). The supernatant was transferred again to a fresh 50 mL falcon tube, the protein concentration was determined by a Bradford assay (BioRad) and samples containing 50 mg of protein per aliquot were prepared. The samples were immediately used for experiments or frozen in liquid nitrogen and stored frozen at −80° C.
# Cell lysate (approximately 50 mg protein per plate) was thawed in a water bath at room temperature and then stored on ice. […] The diluted cell lysate was stored on ice. Mixed Molt4/Ramos lysate was prepared by combining one volume of Molt4 lysate and two volumes of Ramos lysate (ratio 1:2).
# Plates were sealed and incubated for 3 hours in a cold room on a plate shaker (Heidolph tiramax 1000) at 750 rpm. Afterwards the plate was washed 3 times with 230 μL washing buffer (1×DP 0.4% NP40). […] The eluate was frozen quickly at −80° C. and stored at −20° C.
# Afterwards the membrane was washed twice for 10 minutes with PBS buffer containing 0.2% Tween 20 at room temperature. […] Afterwards the membrane was washed twice for 10 minutes each with 1×PBS buffer containing 0.2% Tween 20 at room temperature. Then the membrane was rinsed once with PBS buffer to remove residual Tween 20. The membrane was kept in PBS buffer at 4° C. and then scanned with the Odyssey instrument. Fluorescence signals were recorded and analysed according to the instructions of the manufacturer.
# TYK2 = molecular target: T2, TYK2 (Homo sapiens, UniProt P29597); assay: Kinobeads assay, TYK2; details: mixed Molt4/Ramos lysate, read-out: Inhibition values (IC50) TYK2
# T2 construct: endogenous in cells; host or cells: Molt4 (ATCC CRL-1582) and Ramos (ATCC CRL-1596), mixed lysate 1:2
# T2 sequence (P29597 whole entry): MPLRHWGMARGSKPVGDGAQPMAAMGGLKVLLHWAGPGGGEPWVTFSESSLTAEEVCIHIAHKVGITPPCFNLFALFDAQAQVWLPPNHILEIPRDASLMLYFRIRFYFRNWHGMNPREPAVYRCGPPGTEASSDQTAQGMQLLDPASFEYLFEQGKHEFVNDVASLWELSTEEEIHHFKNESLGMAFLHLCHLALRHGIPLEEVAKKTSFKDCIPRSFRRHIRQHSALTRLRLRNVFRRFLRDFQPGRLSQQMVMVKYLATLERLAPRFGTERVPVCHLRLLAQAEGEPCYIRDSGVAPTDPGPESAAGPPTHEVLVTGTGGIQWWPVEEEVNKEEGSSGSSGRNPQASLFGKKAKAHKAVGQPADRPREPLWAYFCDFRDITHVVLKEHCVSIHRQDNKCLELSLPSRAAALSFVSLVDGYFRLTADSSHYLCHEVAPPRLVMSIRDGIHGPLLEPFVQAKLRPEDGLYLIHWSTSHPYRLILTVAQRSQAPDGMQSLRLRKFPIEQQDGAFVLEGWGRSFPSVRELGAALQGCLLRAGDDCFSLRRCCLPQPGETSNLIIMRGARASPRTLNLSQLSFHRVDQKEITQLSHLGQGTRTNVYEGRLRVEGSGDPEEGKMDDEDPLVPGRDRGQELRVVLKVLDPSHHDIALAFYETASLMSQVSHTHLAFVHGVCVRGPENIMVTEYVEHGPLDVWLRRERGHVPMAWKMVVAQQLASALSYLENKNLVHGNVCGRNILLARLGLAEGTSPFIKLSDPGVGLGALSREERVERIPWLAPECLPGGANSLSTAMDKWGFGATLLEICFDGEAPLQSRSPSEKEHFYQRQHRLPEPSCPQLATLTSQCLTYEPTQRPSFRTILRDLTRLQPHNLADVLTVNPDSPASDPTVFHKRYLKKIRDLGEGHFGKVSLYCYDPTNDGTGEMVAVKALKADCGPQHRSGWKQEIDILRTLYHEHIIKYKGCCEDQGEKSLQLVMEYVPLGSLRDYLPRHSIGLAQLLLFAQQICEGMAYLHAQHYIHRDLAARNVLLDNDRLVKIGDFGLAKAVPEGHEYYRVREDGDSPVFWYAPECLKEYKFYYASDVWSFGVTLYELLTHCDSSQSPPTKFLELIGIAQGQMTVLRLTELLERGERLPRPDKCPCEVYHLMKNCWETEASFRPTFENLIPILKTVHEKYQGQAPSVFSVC
# Method: (§2) The compounds of the present invention as described in the previous examples were tested in a Kinobeads™ assay as described for ZAP-70 (WO-A 2007/137867). Briefly, test compounds (at various concentrations) and the affinity matrix with the immobilized aminopyrido-pyrimidine ligand 24 were added to cell lysate aliquots and allowed to bind to the proteins in the lysate sample. After the incubation time the beads with captured proteins were separated from the lysate. Bound proteins were then eluted and the presence of JAK1, JAK2, JAK3 and TYK2 was detected and quantified using specific antibodies in a dot blot procedure and the Odyssey infrared detection system. Dose response curves for individual kinases were generated and IC50 values calculated. Kinobeads™ assays for ZAP-70 (WO-A 2007/137867) and for kinase selectivity profiling (WO-A 2006/134056) have been previously described.
# (§3) The affinity matrix was washed two times with 15 mL of lx DP buffer containing 0.2% NP40 (IGEPAL® CA-630, Sigma, #13021) and then resuspended in 1×DP buffer containing 0.2% NP40 (3% beads slurry).
# as §1
# (§4) Stock solutions of test compounds were prepared in DMSO. In a 96 well plate […] solution of diluted test compounds at 5 mM in DMSO were prepared. Starting with this solution a 1:3 dilution series (9 steps) was prepared. For control experiments (no test compound) a buffer containing 2% DMSO was used.
# (§5) Molt4 cells (ATCC catalogue number CRL-1582) and Ramos cells (ATCC catalogue number CRL-1596) were grown in 1 L Spinner flasks (Integra Biosciences, #182101) in suspension in RPMI 1640 medium (Invitrogen, #21875-034) supplemented with 10% Fetal Bovine Serum (Invitrogen) at a density between 0.15×10^6 and 1.2×10^6 cells/mL. Cells were harvested by centrifugation, washed once with 1×PBS buffer (Invitrogen, #14190-094) and cell pellets were frozen in liquid nitrogen and subsequently stored at −80° C. Cells were homogenized in a Potter S homogenizer in lysis buffer: 50 mM Tris-HCl, 0.8% NP40, 5% glycerol, 150 mM NaCl, 1.5 mM MgCl2, 25 mM NaF, 1 mM sodium vanadate, 1 mM DTT, pH 7.5. One complete EDTA-free tablet (protease inhibitor cocktail, Roche Diagnostics, 1873580) per 25 mL buffer was added. The material was dounced 10 times using a mechanized POTTER S, transferred to 50 mL falcon tubes, incubated for 30 minutes on ice and spun down for 10 minutes at 20,000 g at 4° C. (10,000 rpm in Sorvall SLA600, precooled). The supernatant was transferred to an ultracentrifuge (UZ)-polycarbonate tube (Beckmann, 355654) and spun for 1 hour at 100.000 g at 4° C. (33.500 rpm in Ti50.2, precooled). The supernatant was transferred again to a fresh 50 mL falcon tube, the protein concentration was determined by a Bradford assay (BioRad) and samples containing 50 mg of protein per aliquot were prepared. The samples were immediately used for experiments or frozen in liquid nitrogen and stored frozen at −80° C.
# (§6) Cell lysate (approximately 50 mg protein per plate) was thawed in a water bath at room temperature and then stored on ice. To the thawed cell lysate 1×DP 0.8% NP40 buffer containing protease inhibitors (1 tablet for 25 mL buffer; EDTA-free protease inhibitor cocktail; Roche Diagnostics 1873580) was added in order to reach a final protein concentration of 10 mg/mL total protein. The diluted cell lysate was stored on ice. Mixed Molt4/Ramos lysate was prepared by combining one volume of Molt4 lysate and two volumes of Ramos lysate (ratio 1:2).
# (§7) To a 96 well filter plate (Multiscreen HTS, BV Filter Plates, Millipore #MSBVN1250) were added per well: 100 μL affinity matrix (3% beads slurry), […], of compound solution, and 50 μL of diluted lysate. […]
# JAK2 = molecular target: T3, JAK2 (Homo sapiens, UniProt O60674); assay: Kinobeads assay, JAK2; details: mixed Molt4/Ramos lysate, read-out: Inhibition values (IC50) JAK2
# T3 construct: endogenous in cells; host or cells: Molt4 (ATCC CRL-1582) and Ramos (ATCC CRL-1596), mixed lysate 1:2
# T3 sequence (O60674 whole entry): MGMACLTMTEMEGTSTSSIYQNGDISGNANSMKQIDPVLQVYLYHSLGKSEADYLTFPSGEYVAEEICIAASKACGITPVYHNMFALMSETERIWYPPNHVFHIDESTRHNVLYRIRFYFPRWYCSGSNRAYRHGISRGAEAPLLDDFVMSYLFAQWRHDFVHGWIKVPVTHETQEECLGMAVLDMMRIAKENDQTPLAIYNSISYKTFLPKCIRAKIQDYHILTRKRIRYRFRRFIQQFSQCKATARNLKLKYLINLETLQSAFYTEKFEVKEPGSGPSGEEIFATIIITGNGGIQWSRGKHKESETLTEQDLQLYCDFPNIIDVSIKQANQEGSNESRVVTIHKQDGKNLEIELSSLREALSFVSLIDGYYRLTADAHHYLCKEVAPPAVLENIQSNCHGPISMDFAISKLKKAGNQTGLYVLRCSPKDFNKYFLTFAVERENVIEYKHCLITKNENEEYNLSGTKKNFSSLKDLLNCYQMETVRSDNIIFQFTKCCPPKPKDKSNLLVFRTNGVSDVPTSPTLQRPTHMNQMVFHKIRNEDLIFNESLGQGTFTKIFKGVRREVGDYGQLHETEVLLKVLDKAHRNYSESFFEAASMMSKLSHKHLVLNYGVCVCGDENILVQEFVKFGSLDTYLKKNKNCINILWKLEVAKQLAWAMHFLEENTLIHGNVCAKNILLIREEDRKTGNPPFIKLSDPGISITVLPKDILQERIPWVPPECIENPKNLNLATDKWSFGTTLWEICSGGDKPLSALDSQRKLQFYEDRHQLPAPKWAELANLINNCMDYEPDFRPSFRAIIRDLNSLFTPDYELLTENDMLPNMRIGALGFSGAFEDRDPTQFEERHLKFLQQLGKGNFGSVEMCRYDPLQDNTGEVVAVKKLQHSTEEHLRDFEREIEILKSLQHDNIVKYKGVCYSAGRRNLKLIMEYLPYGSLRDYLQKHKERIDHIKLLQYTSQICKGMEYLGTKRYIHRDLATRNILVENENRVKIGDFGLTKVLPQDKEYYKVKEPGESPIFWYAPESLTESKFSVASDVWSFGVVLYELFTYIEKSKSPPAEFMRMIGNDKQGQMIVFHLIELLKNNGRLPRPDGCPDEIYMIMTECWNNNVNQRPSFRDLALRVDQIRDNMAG
# Method: as §2, §3, §1, §4, §5, §6, §7
# T1 sequence (P23458 whole entry): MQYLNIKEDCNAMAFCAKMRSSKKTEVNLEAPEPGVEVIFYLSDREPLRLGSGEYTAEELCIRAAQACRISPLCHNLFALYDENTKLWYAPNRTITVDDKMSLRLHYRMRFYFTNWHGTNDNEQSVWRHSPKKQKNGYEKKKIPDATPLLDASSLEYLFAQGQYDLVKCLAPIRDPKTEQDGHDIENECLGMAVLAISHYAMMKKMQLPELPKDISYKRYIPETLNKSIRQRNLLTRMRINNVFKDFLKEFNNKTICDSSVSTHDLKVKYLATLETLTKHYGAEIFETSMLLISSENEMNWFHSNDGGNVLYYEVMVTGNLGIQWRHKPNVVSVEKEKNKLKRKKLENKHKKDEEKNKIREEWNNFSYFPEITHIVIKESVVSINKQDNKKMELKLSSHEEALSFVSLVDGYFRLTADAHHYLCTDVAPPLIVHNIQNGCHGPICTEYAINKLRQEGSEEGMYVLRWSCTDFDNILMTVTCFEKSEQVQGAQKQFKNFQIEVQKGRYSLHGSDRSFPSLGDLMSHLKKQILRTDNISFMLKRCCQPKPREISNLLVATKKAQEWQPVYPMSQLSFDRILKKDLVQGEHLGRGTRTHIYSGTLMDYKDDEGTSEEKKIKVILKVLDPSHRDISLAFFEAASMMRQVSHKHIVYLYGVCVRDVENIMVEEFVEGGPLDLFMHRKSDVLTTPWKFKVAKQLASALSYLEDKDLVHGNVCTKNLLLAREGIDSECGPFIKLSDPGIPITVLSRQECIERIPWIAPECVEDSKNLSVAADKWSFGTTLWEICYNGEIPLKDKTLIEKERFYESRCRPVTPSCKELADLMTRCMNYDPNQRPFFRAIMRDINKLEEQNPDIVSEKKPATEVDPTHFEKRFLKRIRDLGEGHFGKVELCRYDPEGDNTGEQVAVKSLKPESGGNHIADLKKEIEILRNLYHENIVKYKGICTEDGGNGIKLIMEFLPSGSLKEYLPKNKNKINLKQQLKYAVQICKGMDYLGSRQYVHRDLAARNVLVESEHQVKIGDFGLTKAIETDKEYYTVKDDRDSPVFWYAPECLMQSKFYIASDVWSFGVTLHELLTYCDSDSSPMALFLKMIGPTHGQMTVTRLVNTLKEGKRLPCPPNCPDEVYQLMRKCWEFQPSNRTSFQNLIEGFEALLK
SMILES,IC50 (JAK1) [nM],IC50 (TYK2) [nM],IC50 (JAK2) [nM]
CCn1cc(Nc2ncc(Cl)c(N[C@H](CO)c3ccccc3OC)n2)cn1 [Compound 95],100 to 1000,1000 to 10000,100 to 1000
COc1cccc([C@@H](CO)Nc2nc(Nc3cnn(CC(=O)N4CCOCC4)c3)ncc2Cl)c1 [Compound 102],100 to 1000,100 to 1000,≥ 10000
OCCn1cc(Nc2ncc(Cl)c(N[C@H](CO)c3cc(F)cc(F)c3)n2)cn1 [Compound 143],< 100,100 to 1000,100 to 1000
NC(=O)Cn1cc(Nc2ncc(F)c(N[C@H](CO)c3cc(F)cc(F)c3)n2)cn1 [Compound 160],100 to 1000,100 to 1000,1000 to 10000
Cc1cnc(Nc2cnn(C)c2)nc1N[C@H](CO)c1cc(F)cc(F)c1 [Compound 164],100 to 1000,1000 to 10000,1000 to 10000
NCCCn1cc(Nc2ncc(Cl)c(N[C@H](CO)c3ccccc3)n2)cn1 [Compound 113],1000 to 10000,1000 to 10000,1000 to 10000
Cc1cnc(Nc2cnn(C)c2)nc1N[C@H](CO)c1cccc(-c2cnn(C)c2)c1 [Compound 149],> 10000,≥ 10000,≥ 10000
CNC(=O)Cn1cc(Nc2ncc(Cl)c(NC(CO)c3ccccc3Cl)n2)cn1 (stereo not drawn) [Compound 119],100 to 1000,1000 to 10000,1000 to 10000
COc1ccccc1[C@@H](CO)Nc1nc(Nc2cnn(C(C)C)c2)ncc1Cl [Compound 105],1000 to 10000,1000 to 10000,100 to 1000
CNC(=O)Cn1cc(Nc2ncc(F)c(N[C@H](CO)c3cc(F)cc(-c4cnn(C)c4)c3)n2)cn1 [Compound 157],1000 to 10000,≥ 10000,≥ 10000
CNC(=O)Cn1cc(Nc2ncc(F)c(N[C@H](CO)c3cccc(-c4cnn(C)c4)c3)n2)cn1 [Compound 155],> 10000,≥ 10000,≥ 10000
Cn1cc(Nc2ncc(Cl)c(N[C@H](CO)c3cc(F)cc(F)c3)n2)cn1 [Compound 142],100 to 1000,1000 to 10000,100 to 1000
CNC(=O)Cn1cc(Nc2ncc(Cl)c(N[C@H](CO)c3cc(F)cc(F)c3)n2)cn1 [Compound 145],< 100,100 to 1000,100 to 1000
O=C(NCC(F)(F)F)C(Nc1nc(Nc2cnn(CCO)c2)ncc1Cl)c1ccccc1F (stereo not drawn) [Compound 128],1000 to 10000,1000 to 10000,≥ 10000
Cn1cc(Nc2ncc(Cl)c(N[C@H](CO)c3cc(F)cc(-c4cnn(C)c4)c3)n2)cn1 [Compound 137],1000 to 10000,1000 to 10000,1000 to 10000
CNC(=O)Cn1cc(Nc2ncc(Cl)c(NC(CO)c3cc(F)ccc3F)n2)cn1 (stereo not drawn) [Compound 130],< 100,100 to 1000,100 to 1000

SMILES,IC50 (JAK1) [nM],IC50 (TYK2) [nM],IC50 (JAK2) [nM]
NC(=O)Cn1cc(Nc2ncc(Cl)c(N[C@H](CO)c3cc(F)ccc3F)n2)cn1 [Compound 140],< 100,100 to 1000,100 to 1000
Cn1cc(Nc2ncc(Cl)c(NC(CO)c3ccccc3Cl)n2)cn1 (stereo not drawn) [Compound 117],1000 to 10000,1000 to 10000,1000 to 10000
CNC(=O)Cn1cc(Nc2ncc(Cl)c(N[C@H](CO)c3ccccc3F)n2)cn1 [Compound 100],100 to 1000,1000 to 10000,1000 to 10000
Cn1cc(Nc2ncc(C(F)(F)F)c(NC(C)(CO)c3ccccc3)n2)cn1 (stereo not drawn) [Compound 8],> 10000,≥ 10000,≥ 10000
CNC(=O)Cn1cc(Nc2ncc(Cl)c(N[C@H](CO)c3cccc(OC)c3)n2)cn1 [Compound 99],1000 to 10000,1000 to 10000,≥ 10000
Cn1cc(Nc2ncc(Cl)c(N[C@H](CO)c3cccc(N4CCOCC4=O)c3)n2)cn1 [Compound 138],1000 to 10000,1000 to 10000,≥ 10000
OC[C@@H](Nc1nc(Nc2cnn(CC(F)F)c2)ncc1Cl)c1ccccc1F [Compound 165],100 to 1000,1000 to 10000,1000 to 10000
C[C@@H](CO)NC(=O)Cn1cc(Nc2ncc(Cl)c(N[C@H](CO)c3ccccc3F)n2)cn1 [Compound 116],100 to 1000,100 to 1000,1000 to 10000
OCCn1cc(Nc2ncc(Cl)c(NC(CO)c3cc(F)cc(F)c3)n2)cn1 (stereo not drawn) [Compound 122],100 to 1000,100 to 1000,100 to 1000
Cn1cc(-c2cc(F)cc([C@@H](CO)Nc3nc(Nc4cnn(CCO)c4)ncc3F)c2)cn1 [Compound 153],1000 to 10000,≥ 10000,≥ 10000
CC(C)n1cc(Nc2ncc(Cl)c(N[C@H](CO)c3ccccc3F)n2)cn1 [Compound 110],1000 to 10000,1000 to 10000,100 to 1000
CNC(=O)Cn1cc(Nc2ncc(Cl)c(NC(CO)c3cc(F)cc(F)c3)n2)cn1 (stereo not drawn) [Compound 123],100 to 1000,1000 to 10000,1000 to 10000
OCCn1cc(Nc2ncc(Cl)c(NC(CO)c3ccccc3Cl)n2)cn1 (stereo not drawn) [Compound 120],100 to 1000,100 to 1000,1000 to 10000
Cn1cc(Nc2ncc(Cl)c(NC(CO)c3cccc(N4CCOCC4=O)c3)n2)cn1 (stereo not drawn) [Compound 124],1000 to 10000,1000 to 10000,≥ 10000
CNC(=O)Cn1cc(Nc2ncc(Cl)c(N[C@H](CO)c3cc(F)ccc3F)n2)cn1 [Compound 141],< 100,100 to 1000,100 to 1000
